We go through 4 substances from patent US9067970B2, “Anticancer agents comprising peptides with cancer-specific toxicity” (Korea Advanced Institute of Science and Technology, priority 2010, dated 2015).

Where no end group is shown, it is not given here.

One data set has as its system normal HaCat cells. The data set can be described thus: Fluorescence microscopy of FITC-labeled peptide, HaCat cells. The format is cell-based, human. To be noted: 20 μg/ml, 1 hr, fluorescence microscope, FIG. 10. On the procedure:
(§1) To reconfirm the cell selectivity of the peptides of the present invention, each 2×10^5 of normal FSF and HaCat cells, and SM-MEL-5 cell line, HeLa cell line and HCT-116 cell line as cancer cells were cultured at 37° C. overnight, and FITC (fluorescein isothiocyanate)-labeled peptides, buforin IIB and magainin 2 were added thereto at a concentration of 20 μg/ml, followed by incubation for 1 hr. Each cell or cell line was washed with PBS, and observed under a fluorescence microscope (FIG. 10).

A further data set deals with HeLa cell line. The data set is described as follows: Fluorescence microscopy of FITC-labeled peptide, HeLa cell line. To be noted: 20 μg/ml, 1 hr, fluorescence microscope, FIG. 10. The format is cell-based, human. As for the experimental part:
as §1

A further data set concerns HCT-116 cell line. The data set is described as follows: Fluorescence microscopy of FITC-labeled peptide, HCT-116 cell line. The format is cell-based, human. To be noted: 20 μg/ml, 1 hr, fluorescence microscope, FIG. 10. On the procedure:
as §1

The subject of data set [1] is K-562 cancer cell line. The data set is described as follows: Competitive binding assay with ganglioside, phosphatidylserine or heparin (MTT viability). The settings on record: peptide 10 μg/ml, 48 hrs. The format is cell-based, human. From the text: Accordingly, the present inventors assumed that external addition of ganglioside, phosphatidylserine, and heparin to the cancer cell culture media causes dispersion of the peptides of the present invention in the cancer cell surface and the negatively charged materials added to the culture media, whereby the anticancer activity is reduced by the addition of negatively charged materials in a concentration-dependent manner.
In detail, the K-562 cancer cell line was aliquoted to each well of 96-well plate at a density of 1×10^4, and each well was treated with 1 to 100 μg/ml of heparin, phosphatidylserine or ganglioside, and 10 μg/ml of the peptides of the present invention, buforin IIb and magainin 2, followed by cultivation for 48 hrs. Cell viability was measured in the same manner as in Example 1 (MTT assay) (FIGS. 13 to 15).

For data set [2], the system named is K-562 cancer cell line. The data set can be described thus: Anticancer activity on cancer cells lacking ganglioside (PMPP, MTT viability). It counts as cell-based, human. To be noted: peptide 10 μg/ml, PMPP 0, 2 and 4 μM, 48 hrs, FIG. 16. On the procedure: In detail, the K-562 cancer cell line was aliquoted to each well of 96-well plate at a density of 1×10^4, and each well was treated with an inhibitor of ganglioside biosynthesis, PMPP at the concentration of 0, 2 and 4 μM, and then treated with 10 μg/ml of the peptides of the present invention, buforin IIb and magainin 2, followed by cultivation for 48 hrs. Cell viability was measured in the same manner as in Example 1 (MTT assay) (FIG. 16).

In a further data set the test system is normal FSF cells. The data set is described as follows: Fluorescence microscopy of FITC-labeled peptide, FSF cells. The format is cell-based, human. To be noted: 20 μg/ml, 1 hr, fluorescence microscope, FIG. 10. On the procedure:
as §1

For another data set, the system named is SM-MEL-5 cell line. The data set can be described thus: Fluorescence microscopy of FITC-labeled peptide, SM-MEL-5 cell line. It counts as cell-based, human. To be noted: 20 μg/ml, 1 hr, fluorescence microscope, FIG. 10. As for the experimental part: as §1
The subject of data set [3] is human keratinocyte (HaCat). The data set is described as follows: MTT viability of normal human keratinocyte (HaCat) cells. The settings on record: peptide 10-200 μg/ml, 4 days, FIG. 2.
Protocol: (§2) In order to test toxicity of the synthesized NKC and NRC peptides on normal cells, each of the cultured human embryo fibroblast (FSF), human keratinocyte (HaCat) and human erythrocyte was treated with the synthesized peptide, and the viability of each cell was analyzed.
(§3) In detail, each 1×10^4 of FSF and HaCat cells was aliquoted to a 96-well plate, and cultured for 24 hrs. Subsequently, each of the synthesized peptides, a known anticancer peptide, buforin IIb, and a known non-cytotoxic peptide, magainin 2 was added thereto at a concentration of 10, 25, 50, 100 or 200 μg/ml, and then the cells were cultured for 4 days. Thereafter, MTT (3-[4,5-dimethylthiazol-2-yl]-2,5-diphenyltetrazolium bromide) was added, and color development was detected using a spectrophotometer to count the number of surviving cells. On the basis of this, viability of each cell was calculated (FIGS. 1 and 1b). In this connection, an experimental group treated with PBS only was used as a control group.
For the next data set, the system named is human erythrocyte. The data set can be described thus: Disruption of human erythrocytes (absorbance). The settings on record: peptide 10-200 μg/ml, 30 min, FIG. 3.
Data set [4] deals with human embryo fibroblast (FSF). The data set can be described thus: MTT viability of normal human embryo fibroblast (FSF) cells. To be noted: peptide 10-200 μg/ml, 4 days, FIG. 1.
Protocol: as §2, §3

Protocol for human erythrocyte: as §2
Meanwhile, PBS was added to erythrocytes obtained from the human blood, and diluted 1,000-fold. Each of the synthesized peptides, a known anticancer peptide, buforin IIb, and a known non-cytotoxic peptide, magainin 2 was added thereto at a concentration of 10, 25, 50, 100 or 200 μg/ml. After 30 min, disruption of erythrocytes was determined by the difference in absorbance using spectrometry (FIG. 3). In this connection, an experimental group treated with PBS only was used as a control group.

buforin IIb: the “detection of FITC-labeled peptide in normal HaCat cells” value in the data set with normal HaCat cells was “at a predetermined level”. Also, in the data set on HeLa cell line, the “detection of FITC-labeled peptide in HeLa cell line” value is “in a large quantity”. In addition, the “detection of FITC-labeled peptide in HCT-116 cell line” value in the data set on HCT-116 cell line is on record as “in a large quantity”. Also, the “cell viability with external addition of ganglioside” value in the data set with K-562 cancer cell line [1] (ganglioside 1 to 100 μg/ml, FIG. 13) is recorded as “high cell viability”. In the data set with K-562 cancer cell line [1] (heparin 1 to 100 μg/ml, FIG. 15), the “cell viability with external addition of heparin” value is recorded as “high cell viability”. The “cell viability with external addition of phosphatidylserine” value with K-562 cancer cell line [1] (phosphatidylserine 1 to 100 μg/ml, FIG. 14) was “high cell viability”. Moreover, in the data set with K-562 cancer cell line [2], the “viability of cancer cells with increasing concentration of inhibitor of ganglioside biosynthesis” value was “increased”. The “detection of FITC-labeled peptide in normal FSF cells” value in the data set with normal FSF cells is listed as “rarely detected”. In addition, the “detection of FITC-labeled peptide in SM-MEL-5 cell line” value in the data set with SM-MEL-5 cell line is on record as “in a large quantity”.

For magainin 2, the “detection of FITC-labeled peptide in normal HaCat cells” value in the data set on normal HaCat cells is recorded as “not detected”. Also, in the data set on HeLa cell line, the “detection of FITC-labeled peptide in HeLa cell line” value is “not detected”. In the data set on HCT-116 cell line, the “detection of FITC-labeled peptide in HCT-116 cell line” value is reported as “not detected”. For the same substance, in the data set with normal FSF cells, the “detection of FITC-labeled peptide in normal FSF cells” value is given as “not detected”. In addition, the “detection of FITC-labeled peptide in SM-MEL-5 cell line” value in the data set with SM-MEL-5 cell line is listed as “not detected”.

Regarding “APKAMKLLKKLLKLQKKGI-NH2 [NKC, APKAMKLLKKLLKLQKKGI-amine]”, the “viability of HaCat cells (toxicity on normal cells)” value in data set [3] is “little toxicity”. The “viability of erythrocytes (toxicity on normal cells)” value in the data set with human erythrocyte is “little toxicity”. Moreover, the “viability of FSF cells (toxicity on normal cells)” value in data set [4] is “little toxicity”.

For “APKAMRLLRRLLRLQKKGI-NH2 [NRC, APKAMRLLRRLLRLQKKGI-amide]”, the “viability of HaCat cells (toxicity on normal cells)” value in [3] is recorded as “little toxicity”. Also, in the data set with human erythrocyte, the “viability of erythrocytes (toxicity on normal cells)” value is listed as “little toxicity”. Further, in data set [4], the “viability of FSF cells (toxicity on normal cells)” value is listed as “little toxicity”.
